# ChEMBL document CHEMBL6182909 (J Med Chem, 2025)
# Calls of active or inactive are those of the source. The calls are words filed in the database; no cut-off is given here.
# Columns and labels:
# [1] = Cmax in rat at 5 mg/kg, po; type: ADME, organism-based; conditions: in vivo
# [2] = Half life in dog at 5 mg/kg, po; type: ADME, organism-based, Canis lupus familiaris; conditions: in vivo
# [3] = AUC (0 to infinity) in mouse at 5 mg/kg, po; type: ADME, organism-based; conditions: in vivo
# [4] = Tmax in rat at 5 mg/kg, po; type: ADME, organism-based; conditions: in vivo
# [5] = Renal clearance in rat at 2 mg/kg, iv; type: ADME, organism-based; conditions: in vivo
# [6] = Volume of distribution at steady state in rat at 2 mg/kg, iv; type: ADME, organism-based; conditions: in vivo, read-out: Vdss
# [7] = Stability in hepatocytes (unknown origin); type: ADME, cell-based, Hepatocyte
# [8] = Renal clearance in dog at 2 mg/kg, iv; type: ADME, organism-based, Canis lupus familiaris; conditions: in vivo
# [9] = AUC (0 to infinity) in mouse at 2 mg/kg, iv; type: ADME, organism-based; conditions: in vivo
# [10] = AUC (0 to infinity) in dog at 2 mg/kg, iv; type: ADME, organism-based, Canis lupus familiaris; conditions: in vivo
# [11] = Half life in dog at 2 mg/kg, iv; type: ADME, organism-based, Canis lupus familiaris; conditions: in vivo
# [12] = Tmax in dog at 5 mg/kg, po; type: ADME, organism-based, Canis lupus familiaris; conditions: in vivo
# [13] = Unbound fraction in plasma of fasted male Sprague-Dawley rat at 10 mg/kg, po; type: ADME, organism-based
# [14] = Clearance in dog at 2 mg/kg, iv; type: ADME, organism-based, Canis lupus familiaris; conditions: in vivo
# [15] = Tmax in mouse at 5 mg/kg, po; type: ADME, organism-based; conditions: in vivo
# [16] = Clearance in mouse at 2 mg/kg, iv; type: ADME, organism-based; conditions: in vivo
# [17] = Clearance in Cynomolgus monkey at 2 mg/kg, iv; type: ADME, organism-based, Macaca fascicularis; conditions: in vivo
# [18] = Volume of distribution at steady state in Cynomolgus monkey at 2 mg/kg, iv; type: ADME, organism-based, Macaca fascicularis; conditions: in vivo, read-out: Vdss
# [19] = Unbound fraction in brain of fasted male Sprague-Dawley rat at 10 mg/kg, po; type: ADME, organism-based; conditions: in vivo
# [20] = Oral bioavailability in mouse at 5 mg/kg; type: ADME, organism-based; conditions: in vivo
# [21] = AUC (0 to infinity) in rat at 2 mg/kg, iv; type: ADME, organism-based; conditions: in vivo
# [22] = Cmax in mouse at 5 mg/kg, po; type: ADME, organism-based; conditions: in vivo
# [23] = Cmax in dog at 5 mg/kg, po; type: ADME, organism-based, Canis lupus familiaris; conditions: in vivo
# [24] = Half life in Cynomolgus monkey at 2 mg/kg, iv; type: ADME, organism-based, Macaca fascicularis; conditions: in vivo
# [25] = test system: Rattus norvegicus; assay: Hypophagic effect in fasted male Sprague-Dawley rat assessed as inhibition of food intake at 10 mg/kg, po measured after 1 hr relative to control; type: functional; conditions: Rattus norvegicus, Sprague-Dawley, po
# [26] = Cmax in Cynomolgus monkey at 5 mg/kg, po; type: ADME, organism-based, Macaca fascicularis; conditions: in vivo
# [27] = Renal clearance in Cynomolgus monkey at 2 mg/kg, iv; type: ADME, organism-based, Macaca fascicularis; conditions: in vivo
# [28] = Oral bioavailability in Cynomolgus monkey at 5 mg/kg; type: ADME, organism-based, Macaca fascicularis; conditions: in vivo
# [29] = Half life in Cynomolgus monkey at 5 mg/kg, po; type: ADME, organism-based, Macaca fascicularis; conditions: in vivo
# [30] = AUC (0 to infinity) in Cynomolgus monkey at 5 mg/kg, po; type: ADME, organism-based, Macaca fascicularis; conditions: in vivo
# [31] = Half life in rat at 2 mg/kg, iv; type: ADME, organism-based; conditions: in vivo
# [32] = Stability in microsomes (unknown origin); type: ADME, Microsome
# [33] = test system: Rattus norvegicus; assay: Hypophagic effect in fasted male Sprague-Dawley rat assessed as effective dose administered orally measured after 1 hr relative to control; type: functional; conditions: route po
# [34] = AUC (0 to infinity) in dog at 5 mg/kg, po; type: ADME, organism-based, Canis lupus familiaris; conditions: in vivo
# [35] = Volume of distribution at steady state in mouse at 2 mg/kg, iv; type: ADME, organism-based; conditions: in vivo, read-out: Vdss
# [36] = test system: Rattus norvegicus; assay: Hypophagic effect in fasted male Sprague-Dawley rat at 10 mg/kg, po measured after 1 hr in presence of SB242084; type: functional, organism-based
# [37] = AUC (0 to infinity) in rat at 5 mg/kg, po; type: ADME, organism-based; conditions: in vivo
# [38] = Half life in mouse at 2 mg/kg, iv; type: ADME, organism-based; conditions: in vivo
# [39] = Half life in mouse at 5 mg/kg, po; type: ADME, organism-based; conditions: in vivo
# [40] = AUC (0 to infinity) in Cynomolgus monkey at 2 mg/kg, iv; type: ADME, organism-based, Macaca fascicularis; conditions: in vivo
# [41] = Clearance in rat at 2 mg/kg, iv; type: ADME, organism-based; conditions: in vivo
# [42] = Oral bioavailability in dog at 5 mg/kg; type: ADME, organism-based, Canis lupus familiaris; conditions: in vivo
# [43] = Volume of distribution at steady state in dog at 2 mg/kg, iv; type: ADME, organism-based, Canis lupus familiaris; conditions: in vivo, read-out: Vdss
# [44] = Half life in rat at 5 mg/kg, po; type: ADME, organism-based; conditions: in vivo
# [45] = Water solubility of compound; type: physicochemical; conditions: buffer
# [46] = Basicity constant, pKa of compound; type: physicochemical
# [47] = Tmax in Cynomolgus monkey at 5 mg/kg, po; type: ADME, organism-based, Macaca fascicularis; conditions: in vivo
# [48] = test system: Rattus norvegicus; assay: Hypophagic effect in fasted male Sprague-Dawley rat assessed as inhibition of food intake at 5 mg/kg, po measured after 1 hr relative to control; type: functional
# [49] = Drug concentration in brain of fasted male Sprague-Dawley rat assessed as inhibition of food intake at 10 mg/kg, po measured after 1 hr relative to control; type: organism-based; conditions: read-out: Ct
# [50] = Drug concentration in plasma of fasted male Sprague-Dawley rat assessed as inhibition of food intake at 10 mg/kg, po measured after 1 hr relative to control; type: organism-based
# [51] = Oral bioavailability in rat at 5 mg/kg; type: ADME, organism-based; conditions: in vivo
smiles,measurement,setting,value
CNC(=O)c1ccc2c3c1CCN3CCNC2,Cmax,[1],570 ng/mL
same,half-life,[2],1.9 h
same,AUC(0-inf),[3],720 ng·h/mL
same,Tmax,[4],0.58 h
same,CL renal,[5],24 mL/min/kg
same,Vd,[6],1.89 L/kg
same,Stability,[7],Stable
same,CL renal,[8],1.17 mL/min/kg
same,AUC(0-inf),[9],340 ng·h/mL
same,AUC(0-inf),[10],1830 ng·h/mL
same,half-life,[11],1.38 h
same,Tmax,[12],0.92 h
same,fraction unbound,[13],0.87
same,clearance,[14],18.3 mL/min/kg
same,Tmax,[15],0.25 h
same,clearance,[16],99 mL/min/kg
same,clearance,[17],16.7 mL/min/kg
same,Vd,[18],1.8 L/kg
same,Fu,[19],75%
same,bioavailability,[20],85.6%
same,AUC(0-inf),[21],770 ng·h/mL
same,Cmax,[22],940 ng/mL
same,Cmax,[23],1820 ng/mL
same,half-life,[24],1.49 h
same,inhibition in vivo at 10 mg/kg,[25],87%
same,Cmax,[26],700 ng/mL
same,CL,"[27]; iv, 2 mg/kg",4.5 mL/min/kg
same,bioavailability,[28],71.2%
same,half-life,[29],2.07 h
same,AUC(0-inf),[30],3580 ng·h/mL
same,half-life,[31],0.56 h
same,Stability,[32],Stable
same,ED50,[33],6.4 mg/kg
same,AUC(0-inf),[34],4130 ng·h/mL
same,Vd,[35],2.44 L/kg
same,Activity,[36],inactive
same,AUC(0-inf),[37],2020 ng·h/mL
same,half-life,[38],0.41 h
same,half-life,[39],0.6 h
same,AUC(0-inf),[40],2000 ng·h/mL
same,clearance,[41],44.3 mL/min/kg
same,bioavailability,[42],90.2%
same,Vd,[43],1.41 L/kg
same,half-life,[44],1.51 h
same,solubility,[45],91 mg/mL
same,pKa,[46],7.93
same,Tmax,[47],2.33 h
C[C@H]1CN2CCNCc3ccc(C(=O)NCC(F)F)c1c32 [BEXICASERIN],inhibition in vivo at 5 mg/kg,[48],81%
same,concentration at 1 h,[49],832 ng/g
same,Cmax,[1],450 ng/mL
same,half-life,[2],4 h
same,AUC(0-inf),[3],910 ng·h/mL
same,Tmax,[4],0.5 h
same,CL renal,[5],9.65 mL/min/kg
same,Vd,[6],3.69 L/kg
same,CL renal,[8],0.00333 mL/min/kg
same,AUC(0-inf),[9],318 ng·h/mL
same,AUC(0-inf),[10],1620 ng·h/mL
same,half-life,[11],1.3 h
same,Tmax,[12],0.58 h
same,clearance,[14],20.7 mL/min/kg
same,Tmax,[15],0.25 h
same,clearance,[16],68.8 mL/min/kg
same,clearance,[17],11.5 mL/min/kg
same,Vd,[18],4.36 L/kg
same,bioavailability,[20],100%
same,AUC(0-inf),[21],577 ng·h/mL
same,Cmax,[22],820 ng/mL
same,Cmax,[23],1590 ng/mL
same,half-life,[24],6.8 h
same,Cmax,[26],430 ng/mL
same,CL renal,[27],0.0333 mL/min/kg
same,bioavailability,[28],58%
same,half-life,[29],5.52 h
same,AUC(0-inf),[30],4300 ng·h/mL
same,half-life,[31],1.6 h
same,concentration at 1 h,[50],960 ng/mL
same,bioavailability,[51],89%
same,ED50,[33],2.8 mg/kg
same,AUC(0-inf),[34],3920 ng·h/mL
same,Vd,[35],2.98 L/kg
same,AUC(0-inf),[37],1280 ng·h/mL
same,half-life,[38],0.66 h
same,half-life,[39],1.5 h
same,AUC(0-inf),[40],2970 ng·h/mL
same,clearance,[41],58.5 mL/min/kg
same,bioavailability,[42],97%
same,Vd,[43],1.85 L/kg
same,half-life,[44],2.5 h
same,Tmax,[47],3 h
